Assay results as given in patent US10054581B1, “Inhibitors of notch signaling pathway and use thereof in treatment of cancers” (Ecole Polytechnique Federale de Lausanne (EPFL), priority 2011, dated 2018).
Entries after “also recorded” stand apart in the source; their conditions may differ.

Legend:
[1] = Body weight changes in mice; type: in vivo, mouse; conditions: 25 mg/kg, 5 consecutive days
Description: C57B16 mice were intra peritoneal (i.p) injected with oil or 25 mg/kg of I3 or 10 mg/kg of CPA, once a day for 5-7 days. Mice were weighed using a weighing scale on day 0, day 3 and day 5. On day 8, intestinal tissue, spleen and thymus were harvested for analyses.
In in vitro culture assays, chemical compound 6-(4-Tert-Butylphenoxy)Pyridin-3-Amine (I3) was able to block Notch1 and Notch2 mediated pathway activation. Therefore, Applicants hypothesized that treatment of mice with 6-(4-Tert-Butylphenoxy)Pyridin-3-Amine (I3) may lead to a goblet cell metaplasia of the intestine. To test this hypothesis, mice were intra peritoneally (i.p) injected with 25 mg/kg of 6-(4-Tert-Butylphenoxy)Pyridin-3-Amine (I3) for 7 consecutive days. On day 8, animals were sacrificed and intestinal tissues were fixed and embedded in paraffin. Histological analyses were carried out using Alcian blue to stain for goblet cells. […] Similarly, the effect of 6-(4-Tert-Butylphenoxy)Pyridin-3-Amine (I3) on body weight changes was also monitored. Mice were injected for 5 consecutive days with 25 mg/kg of 6-(4-Tert-Butylphenoxy)Pyridin-3-Amine (I3) and the changes in body mass were recorded.

[2] = test system: Wnt signalling (β-catenin-TCF/LEF driven luciferase); test: Wnt signalling TOP-luciferase assay in HeLa cells; type: cell-based; conditions: HeLa cells co-transfected with β-catenin and TOP-luciferase
From the text: One of the concerns about the activity of the chemical compound 6-(4-Tert-Butylphenoxy)Pyridin-3-Amine (I3) is its specificity towards the Notch signalling pathway. In order to test whether 6-(4-Tert-Butylphenoxy)Pyridin-3-Amine (I3) could also block other developmental pathways, Applicants have tested its ability to block the Wnt and Hedgehog signalling pathways. In summary, to measure Wnt signalling, HeLa cells were transfected with a plasmid containing a promoter consisting of TCF/LEF binding sites and thereby driving the expression of a luciferase gene (TOP-luciferase). To activate the Wnt pathway, a plasmid encoding for β-catenin was co-transfected into HeLa cells. The co-transfected cells were incubated in the presence or absence of the 6-(4-Tert-Butylphenoxy)Pyridin-3-Amine (I3) chemical compound. Transient introduction of β-catenin leads to an upregulation of Wnt signalling as measured by β-catenin-TCF/LEF driven luciferase activity.

TALL1 = test: Cell cycle analysis (Ki67 and Hoechst stain), TALL1; type: cell-based, human; conditions: 10 μM
Description: FIGS. 6A-6D show 6-(4-Tert-Butylphenoxy)Pyridin-3-Amine (I3) induces G0/G1 cell cycle arrest and apoptosis in human T cell acute lymphoblastic leukemia cell lines and human breast cancer cell line HCC1187. […] Percentage of Annexin V positive (apoptotic) cell population was measured using flow cytometry.
In addition to induction of apoptosis, the proliferative arrest observed in 6-(4-Tert-Butylphenoxy)Pyridin-3-Amine (I3) treated human leukemic cell lines and breast cancer cell line also appears to be due to cell cycle arrest in G0/G1 phase of the cell cycle. Leukemic cell lines (RPMI8402, KOPTK1 and TALL1) and breast cancer cell lines were treated with 6-(4-Tert-Butylphenoxy)Pyridin-3-Amine (I3) for 48 hours and cell cycle status was determined using Ki67 and Hoechst stain.

[3] = test system: Notch target genes Hes1, cMyc and Dtx1; NICD; test: Notch target gene expression in human cancer cell lines (qRT-PCR, Western blot); type: cell-based
Description: Total RNA was extracted from cells using TRIzol® extraction kit (Invitrogen). Briefly, 1×10^6 cells were washed with ice-cold 1×PBS and lysed in 1 ml of TRIzol® solution for 5 minutes at room temperature to dissociate nucleoprotein complexes. Lysed cells were then treated with 200 μl of chloroform and shaked vigorously for 15-30 seconds and incubated at room temperature for 2-3 minutes. The samples were centrifuged at 14000 rpm using Eppendorf table top centrifuge for 10 minutes at 4° C. Following centrifugation, upper aqueous phase was transferred to new eppendorf tubes. […]
Total RNA extracted from the cell was used to synthesize cDNA by reverse transcription reaction. […] RNA concentration was measured using NanoDrop®ND-1000 spectrophotometer (Witec AG) and 500 ng of total RNA was mixed with a 10 mM mix of dNTPs and 100 ng of random primers. […]
Cells were lysed in RIPA buffer (50 mM Tris.Cl, pH 7.5, 150 mM NaCl, 1% nonidet P-40, 0.5% sodium deoxycholate and 0.1% SDS) for 30 minutes at 4° C. […] The protein concentration was determined by Bradford assay using spectrophotometer (Ultrospec 3000 pro). […]
For immunoblotting, membranes were blocked with 5% milk and incubated overnight with primary antibodies at 4° C. […] Signal was detected with Super Signal West chemiluminescent substrate (Thermo Scientific, catalog number 34077). […]

With `CC(C)(C)c1ccc(Oc2ccc(N)cn2)cc1` [I3, 6-(4-Tert-Butylphenoxy)Pyridin-3-Amine] the body weight [1] was “did not cause a loss in the body weight”, the Wnt pathway activation [2] was “does not block the Wnt pathway activation” and the cell cycle status (TALL1; 48 hours) was “induces an arrest in the G0/G1 phase of the cell cycle”. For the same compound, the “increase in cells arrested in G0/G1 phase of the cell cycle” value (TALL1; stated jointly for RPMI8402, KOPTK1 and TALL1) was 20-30%, the NICD protein levels ([3]; RPMI 8402, HPB ALL, KOPTK1, 24 hours, Western blot) was “reduced levels of NICD” and the “expression of Notch target genes Hes1, cMyc and Dtx1 (mRNA and protein)” value ([3]; RPMI 8402, HPBALL, KOPTK1 and PANC1, 24 hours) was “induced a statistically significant downregulation of Notch target genes; also recorded: inhibits Notch signalling and downregulates its target genes in human cancer cell lines; also recorded: downregulation of Notch target genes in human T-ALL cell lines”.
